Results taken from patent publication US20160022675A1, “PROCESSES FOR PREPARING TETRAHYDROISOQUINOLINES” (BRISTOL-MYERS SQUIBB COMPANY, priority 2013, published 2016).

Tests used:
adrenergic α1B receptor = target: T1, adrenergic α1B receptor (Homo sapiens, UniProt P35368); experiment: Off-target activity at adrenergic α1B receptor; format: binding; settings: off-target site
T1 sequence (P35368 1-520): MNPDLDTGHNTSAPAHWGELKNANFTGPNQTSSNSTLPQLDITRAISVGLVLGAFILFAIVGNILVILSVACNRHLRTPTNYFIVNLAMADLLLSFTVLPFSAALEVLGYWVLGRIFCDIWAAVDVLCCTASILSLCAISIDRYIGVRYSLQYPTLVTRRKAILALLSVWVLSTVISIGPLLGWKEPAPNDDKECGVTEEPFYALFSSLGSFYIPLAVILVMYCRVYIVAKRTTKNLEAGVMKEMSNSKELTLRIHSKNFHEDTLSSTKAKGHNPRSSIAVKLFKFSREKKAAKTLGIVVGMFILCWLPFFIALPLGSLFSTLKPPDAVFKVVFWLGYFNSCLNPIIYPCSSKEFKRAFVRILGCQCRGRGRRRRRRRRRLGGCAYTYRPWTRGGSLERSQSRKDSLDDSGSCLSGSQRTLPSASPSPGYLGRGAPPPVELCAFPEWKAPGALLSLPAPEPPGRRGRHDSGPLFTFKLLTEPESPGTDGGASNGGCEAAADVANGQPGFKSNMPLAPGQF

DAT = DAT (Homo sapiens, UniProt Q01959); experiment: Competition binding, membranes from HEK cells overexpressing DAT; parameters: expressed in transfected cells; host or cells: HEK cells (membranes); settings: radioligand at Kd concentration; HEK cell membranes
DAT, sequence (Q01959 whole entry): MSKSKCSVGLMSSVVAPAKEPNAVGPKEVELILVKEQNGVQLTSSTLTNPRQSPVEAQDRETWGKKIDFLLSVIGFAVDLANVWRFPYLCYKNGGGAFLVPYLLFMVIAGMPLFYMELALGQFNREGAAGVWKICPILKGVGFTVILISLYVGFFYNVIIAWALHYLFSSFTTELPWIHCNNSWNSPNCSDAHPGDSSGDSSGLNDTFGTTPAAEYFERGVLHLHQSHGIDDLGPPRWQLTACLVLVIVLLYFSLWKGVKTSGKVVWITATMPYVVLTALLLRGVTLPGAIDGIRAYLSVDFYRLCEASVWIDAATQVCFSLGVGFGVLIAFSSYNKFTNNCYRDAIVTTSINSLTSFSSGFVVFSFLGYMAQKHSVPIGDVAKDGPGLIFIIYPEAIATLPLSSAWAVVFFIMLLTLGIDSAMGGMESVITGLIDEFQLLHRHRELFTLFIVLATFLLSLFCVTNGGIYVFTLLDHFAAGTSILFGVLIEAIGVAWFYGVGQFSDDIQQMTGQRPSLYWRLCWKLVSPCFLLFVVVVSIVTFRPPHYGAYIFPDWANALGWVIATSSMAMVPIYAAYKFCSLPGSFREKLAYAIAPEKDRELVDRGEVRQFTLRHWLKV
Method: (§1) Competition binding experiments were performed to determine the in vitro binding potencies (IC50 values) of Compound 1-(4S) for SERT, DAT, and NET. Membranes prepared from human embryonic kidney (HEK) cells overexpressing each transporter were employed. Radioligands were used at their respective affinity constant (Kd) concentrations for each transporter to enable direct comparisons of the IC50 values between assays.

5-HT1A = target: T2, 5-HT1A (Homo sapiens, UniProt P08908); experiment: Off-target activity at 5-HT1A; format: binding; settings: off-target site; read-out: 5-HT1A inhibition constant Ki
T2 sequence (P08908 1-422): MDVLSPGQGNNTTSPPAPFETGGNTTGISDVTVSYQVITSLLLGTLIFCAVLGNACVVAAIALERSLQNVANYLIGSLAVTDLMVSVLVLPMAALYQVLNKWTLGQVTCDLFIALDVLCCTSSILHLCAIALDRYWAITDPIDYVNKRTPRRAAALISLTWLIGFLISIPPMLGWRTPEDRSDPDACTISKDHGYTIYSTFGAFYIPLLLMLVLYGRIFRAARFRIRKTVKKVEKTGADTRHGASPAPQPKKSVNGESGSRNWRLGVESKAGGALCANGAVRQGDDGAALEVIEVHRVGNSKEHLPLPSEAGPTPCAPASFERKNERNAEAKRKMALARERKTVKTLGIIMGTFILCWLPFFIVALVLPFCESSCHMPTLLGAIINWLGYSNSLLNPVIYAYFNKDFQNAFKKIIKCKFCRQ

SERT = SERT (Homo sapiens, UniProt P31645); experiment: Competition binding, membranes from HEK cells overexpressing SERT; parameters: expressed in transfected cells; host or cells: HEK cells (membranes); settings: radioligand at Kd concentration; HEK cell membranes; read-out: SERT binding IC50
SERT, sequence (P31645 whole entry): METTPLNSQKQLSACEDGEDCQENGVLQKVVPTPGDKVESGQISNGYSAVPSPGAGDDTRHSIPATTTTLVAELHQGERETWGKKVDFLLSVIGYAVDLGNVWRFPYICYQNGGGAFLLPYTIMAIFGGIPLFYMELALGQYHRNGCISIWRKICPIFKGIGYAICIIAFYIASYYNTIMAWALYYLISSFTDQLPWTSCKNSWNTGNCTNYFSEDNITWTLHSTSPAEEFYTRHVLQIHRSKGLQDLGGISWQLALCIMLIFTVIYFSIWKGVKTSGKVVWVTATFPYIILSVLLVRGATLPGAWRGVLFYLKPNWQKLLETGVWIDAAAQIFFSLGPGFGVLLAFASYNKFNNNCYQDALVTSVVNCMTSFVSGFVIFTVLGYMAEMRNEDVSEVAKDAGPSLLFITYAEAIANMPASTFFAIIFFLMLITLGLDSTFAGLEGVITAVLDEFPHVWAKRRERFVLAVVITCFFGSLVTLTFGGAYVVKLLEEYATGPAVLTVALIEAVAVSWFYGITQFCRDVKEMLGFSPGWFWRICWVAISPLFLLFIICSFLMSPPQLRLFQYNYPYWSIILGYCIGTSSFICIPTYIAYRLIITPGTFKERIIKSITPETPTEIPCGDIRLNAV
Method: as §1

adrenergic α1D receptor = target: T3, adrenergic α1D receptor (Homo sapiens, UniProt P25100); experiment: Off-target activity at adrenergic α1D receptor; format: binding; settings: off-target site
T3 sequence (P25100 1-572): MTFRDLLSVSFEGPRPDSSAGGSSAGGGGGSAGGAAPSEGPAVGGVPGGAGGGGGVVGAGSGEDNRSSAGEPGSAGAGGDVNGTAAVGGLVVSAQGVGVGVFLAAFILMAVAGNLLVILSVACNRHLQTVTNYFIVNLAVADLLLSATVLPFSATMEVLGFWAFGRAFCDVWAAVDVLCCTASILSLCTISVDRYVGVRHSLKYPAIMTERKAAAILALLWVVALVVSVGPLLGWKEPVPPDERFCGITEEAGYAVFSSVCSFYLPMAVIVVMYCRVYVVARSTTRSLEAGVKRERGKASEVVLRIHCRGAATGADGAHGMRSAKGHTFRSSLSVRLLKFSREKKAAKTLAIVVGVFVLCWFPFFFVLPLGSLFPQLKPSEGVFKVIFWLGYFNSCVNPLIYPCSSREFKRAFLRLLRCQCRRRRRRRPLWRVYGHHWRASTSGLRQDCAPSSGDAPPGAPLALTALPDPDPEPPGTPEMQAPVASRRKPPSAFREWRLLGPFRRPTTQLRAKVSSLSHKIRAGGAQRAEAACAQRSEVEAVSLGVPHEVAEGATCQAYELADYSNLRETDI

adrenergic α1A receptor = target: T4, adrenergic α1A receptor (Homo sapiens, UniProt P35348); experiment: Off-target activity at adrenergic α1A receptor; format: binding; settings: off-target site
T4 sequence (P35348 1-466): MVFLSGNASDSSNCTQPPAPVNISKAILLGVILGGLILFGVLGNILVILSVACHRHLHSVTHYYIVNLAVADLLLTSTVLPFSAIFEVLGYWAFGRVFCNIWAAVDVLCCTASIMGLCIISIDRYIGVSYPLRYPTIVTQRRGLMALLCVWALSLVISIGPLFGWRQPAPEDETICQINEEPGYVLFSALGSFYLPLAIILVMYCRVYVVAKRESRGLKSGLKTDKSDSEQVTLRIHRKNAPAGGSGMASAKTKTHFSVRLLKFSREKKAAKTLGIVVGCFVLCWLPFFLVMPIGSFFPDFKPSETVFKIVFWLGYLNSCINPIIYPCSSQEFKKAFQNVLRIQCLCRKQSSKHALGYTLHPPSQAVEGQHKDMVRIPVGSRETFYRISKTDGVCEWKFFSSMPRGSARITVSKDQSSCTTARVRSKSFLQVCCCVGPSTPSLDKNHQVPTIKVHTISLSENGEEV

NET = NET (Homo sapiens, UniProt P23975); experiment: Competition binding, membranes from HEK cells overexpressing NET; parameters: expressed in transfected cells; host or cells: HEK cells (membranes); settings: radioligand at Kd concentration; HEK cell membranes
NET, sequence (P23975 whole entry): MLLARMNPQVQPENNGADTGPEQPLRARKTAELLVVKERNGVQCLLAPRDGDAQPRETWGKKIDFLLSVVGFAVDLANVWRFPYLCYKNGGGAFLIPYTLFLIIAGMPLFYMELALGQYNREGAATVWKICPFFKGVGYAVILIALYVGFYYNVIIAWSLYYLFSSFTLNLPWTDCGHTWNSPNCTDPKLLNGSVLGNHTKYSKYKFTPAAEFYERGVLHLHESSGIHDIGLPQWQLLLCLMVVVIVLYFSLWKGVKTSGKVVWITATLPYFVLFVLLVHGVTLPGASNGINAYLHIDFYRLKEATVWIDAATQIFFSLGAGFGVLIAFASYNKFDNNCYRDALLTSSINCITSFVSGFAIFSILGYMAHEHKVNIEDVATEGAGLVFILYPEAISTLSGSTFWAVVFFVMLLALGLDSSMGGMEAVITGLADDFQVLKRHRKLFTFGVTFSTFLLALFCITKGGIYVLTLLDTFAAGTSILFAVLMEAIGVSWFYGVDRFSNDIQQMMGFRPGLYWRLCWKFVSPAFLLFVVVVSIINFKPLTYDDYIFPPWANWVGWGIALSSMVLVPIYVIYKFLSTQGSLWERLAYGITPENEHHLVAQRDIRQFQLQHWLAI
Method: as §1

Work on `Nc1ccc(-c2ccc3c(c2)CNC[C@H]3c2ccc3ccccc3c2)nn1` [Compound 31] yielded a Ki (adrenergic α1B receptor) of 260 nM, an IC50 (DAT) of 6.19 ± 1 nM and a Ki (5-HT1A) of 99 nM. For the same compound, the IC50 (SERT) was 0.21 ± 0.04 nM, the Ki (adrenergic α1D receptor) was 480 nM and the Ki (adrenergic α1A receptor) was 410 nM. For the same compound, the IC50 (NET) was 26.7 ± 3 nM.
